Values joined by “and” are separate entries in the source; they are usually repeats but may differ in a detail not shown here. Identical values can stand only once. Like-named read-outs stand apart in the source and are kept apart here.
Experiments:
[1] = target: human recombinant GCL (Homo sapiens (Human), UniProt P48506); test: GCL enzyme profiling assay (ADP-Glo luminescence); type: biochemical
Method in brief: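 ADP-Glo luminescence readout; 5 nM enzyme preincubated 1 h at 22 °C with 0.6 mM ATP, then started with 1 mM glutamate and 1.2 mM α-aminobutyrate, stopped after 2 h. Buffer: HEPES pH 7.5, MgCl2, DTT, BSA, 0.2% F-127, 1% DMSO. IC50 from four-parameter logistic fit.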

[2] = system: RKN cells; test: RKN cell profiling assay (cell viability, CellTiter-Glo); type: cell-based; details: read-out: Cell Killing EC50
Method in brief: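 Cells seeded at 1,000/well in F-12 with 10% FBS, left to adhere 24 h, then compound-treated for 96 h at 0.5% final DMSO. Viability by CellTiter-Glo luminescence; EC50 from four-parameter logistic fit. Ferroptosis rescue runs included 1.5 μM ferrostatin-1 added at seeding.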

[3] = human recombinant GCL, ADP-Glo, read-out: GCL IC50
[4] = human recombinant GCL 5 nM, 1 h preincubation with ATP, read-out: GCL IC50

human recombinant GCL, sequence (P48506 whole entry): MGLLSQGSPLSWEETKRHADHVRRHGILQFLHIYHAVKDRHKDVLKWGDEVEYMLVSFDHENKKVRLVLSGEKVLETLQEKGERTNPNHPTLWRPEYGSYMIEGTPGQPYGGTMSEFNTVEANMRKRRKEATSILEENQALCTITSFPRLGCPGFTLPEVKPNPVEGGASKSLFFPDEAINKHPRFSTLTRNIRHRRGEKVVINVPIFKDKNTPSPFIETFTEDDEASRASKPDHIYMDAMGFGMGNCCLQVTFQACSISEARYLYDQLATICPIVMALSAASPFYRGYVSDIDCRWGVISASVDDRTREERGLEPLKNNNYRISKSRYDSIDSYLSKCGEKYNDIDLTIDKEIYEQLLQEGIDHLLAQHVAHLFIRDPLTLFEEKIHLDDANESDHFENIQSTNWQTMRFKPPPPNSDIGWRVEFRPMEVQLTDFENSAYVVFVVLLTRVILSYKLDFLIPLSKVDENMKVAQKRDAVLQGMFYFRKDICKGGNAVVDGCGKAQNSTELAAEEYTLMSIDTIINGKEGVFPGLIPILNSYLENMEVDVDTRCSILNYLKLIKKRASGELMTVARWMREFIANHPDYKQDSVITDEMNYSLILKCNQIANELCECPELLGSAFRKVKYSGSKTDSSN

Row | Compound | IC50 [1, 3] | EC50 ([2]; cell viability) | IC50 [1, 4] | EC50 ([2]; 96 h, 96 h exposure) | IC50 ([1]; human recombinant GCL 5 nM, 1 h preincubation with ATP, read-out: GCL IC50 (mM), individual values in parentheses)
1 | N=S(=O)(CCC(c1ccc(-c2ccc(Cl)c(C(F)(F)F)c2)cc1)C(F)(F)F)CC[C@H](N)C(=O)O (stereo partly shown) [Compound 237] | ≤ 0.02 mM | < 1 mM |  |  | 
2 | Cc1cc(F)ccc1-c1cnc(C(O)(CCS(=N)(=O)CC[C@H](N)C(=O)O)C(F)(F)F)nc1 (stereo partly shown) [Compound 473] | 0.02 to 2 mM | < 1 mM |  |  | 
3 | N=S(=O)(CCC(N)C(F)(F)F)CC[C@H](N)C(=O)O (stereo partly drawn) [Compound 210, (2S)-2-amino-4-(3-amino-4,4,4-trifluorobutylsulfonimidoyl)butanoic acid] |  |  | 0.02 to 2 mM | < 1 mM | 
4 | CNC(=O)C1(CCS(=N)(=O)CC[C@H](N)C(=O)O)CCC1 (stereo partly shown) [Compound 192] |  |  | 0.02 to 2 mM | ≥ 1 mM | 
5 | Cc1ccc(C(F)(F)F)c(CCS(=N)(=O)CC[C@H](N)C(=O)O)c1 (stereo partly shown) [Compound 44] |  |  | ≤ 0.02 mM | ≥ 1 mM | 
6 | N=S(=O)(CCCC(F)(F)F)CC[C@H](N)C(=O)OCC1CCCCC1 (stereo partly shown) [Compound 81] |  |  | 0.02 to 2 mM | < 1 mM | 
7 | N=S(=O)(CC[C@H](N)C(=O)O)CCC1(c2ccc3[nH]cnc3c2)CCC1 (stereo partly shown) [Compound 396] | 0.02 to 2 mM | ≥ 1 mM |  |  | 
8 | CC1(CCCS(=N)(=O)CC[C@H](N)C(=O)O)COC1 (stereo partly shown) [Compound 312] | 0.02 to 2 mM | < 1 mM |  |  | 
9 | CCCCS(=N)(=O)CC[C@H](N)C(=O)NS(=O)(=O)C(F)(F)F (stereo partly shown) [Compound 108] |  |  | > 2 mM | ≥ 1 mM | 
10 | N=[S@SP2](=O)(CCC(N)C(=O)O)CCC(O)(c1ccc(N[S@SP3](=O)(=O)c2ccccc2)cc1)C(F)(F)F (stereo not shown) [compound 507] | ≤ 0.02 mM | ≥ 1 mM |  |  | 
11 | N=S(=O)(CCCC(F)(F)F)CC[C@H](N)C(=O)OC1CCCCC1 (stereo partly shown) [Compound 80] |  |  | 0.02 to 2 mM | < 1 mM | 
12 | N[C@H]1CC[S@@](=O)(CC[C@H](O)C(F)(F)F)=NC1=O [Compound 496, (1R,4S)-4-amino-1-((S)-4,4,4-trifluoro-3-hydroxybutyl)-5,6-dihydro-116,2-thiazin-3 (4H)-one 1-oxide] | 0.02 to 2 mM | < 1 mM |  |  | 
13 | N=S(=O)(CCC1CCC1)CC[C@H](N)C(=O)O (stereo partly shown) [Compound 165] |  |  | ≤ 0.02 mM | < 1 mM | 
14 | N=S(=O)(CCCC(F)(F)F)CC[C@H](N)C(=O)OC1CCOCC1 (stereo partly shown) [Compound 84] |  |  | 0.02 to 2 mM | < 1 mM | 
15 | CC(C)(C)[C@H](N)CS(=N)(=O)CC[C@H](N)C(=O)O (stereo partly shown) [Compound 148] |  |  | 0.02 to 2 mM | ≥ 1 mM | 
16 | COC(C)(C)CCCS(=N)(=O)CC[C@H](N)C(=O)O (stereo partly shown) [Compound 295] | 0.02 to 2 mM | ≥ 1 mM |  |  | 
17 | N=S(=O)(CC[C@H](N)C(=O)O)CCN1CCCC1=O (stereo partly shown) [Compound 145] |  |  | > 2 mM | ≥ 1 mM | 
18 | CCCc1ccc(C(CCS(=N)(=O)CC[C@H](N)C(=O)O)C(F)(F)F)cc1 (stereo partly shown) [Compound 223] | ≤ 0.02 mM | < 1 mM |  |  | 
19 | N=S(=O)(CC[C@H](N)C(=O)O)CCC(O)(c1ccc(NC(=O)c2ccsc2)cc1)C(F)(F)F (stereo partly shown) [Compound 446] | ≤ 0.02 mM | < 1 mM |  |  | 
20 | CCCCS(=N)(=O)CC[C@H](N)C(N)=O (stereo partly drawn) [Compound 105, (2S)-2-amino-4-(butylsulfonimidoyl)butanamide] |  |  | > 2 mM | ≥ 1 mM | 
21 | Cc1ccn(C(CCS(=N)(=O)CC[C@H](N)C(=O)O)C(F)(F)F)n1 (stereo partly shown) [Compound 412] | 0.02 to 2 mM | ≥ 1 mM |  |  | 
22 | N=S(=O)(CCCC(F)(F)F)CC[C@H](N)c1ncon1 (stereo partly drawn) [Compound 203, (1S)-1-(1,2,4-oxadiazol-3-yl)-3-(4,4,4-trifluorobutylsulfonimidoyl)propan-1-amine] |  |  | > 2 mM | ≥ 1 mM | 
23 | N=S(=O)(CCC(c1ccc(CCC(F)(F)F)cc1)C(F)(F)F)CC[C@H](N)C(=O)O (stereo partly drawn) [Compound 213, (2S)-2-amino-4-(4,4,4-trifluoro-3-(4-(3,3,3-trifluoropropyl)phenyl)butylsulfonimidoyl)butanoic acid] | ≤ 0.02 mM | ≥ 1 mM |  |  | 
24 | N[C@@H](CCSCCC(O)(c1ncc(-c2ccc(Cl)cc2Cl)cn1)C(F)(F)F)C(=O)O (stereo partly shown) [Compound 469] | 0.02 to 2 mM | ≥ 1 mM |  |  | 

Row | Compound | IC50 [1, 3] | EC50 ([2]; cell viability) | IC50 [1, 4] | EC50 ([2]; 96 h, 96 h exposure) | IC50 ([1]; human recombinant GCL 5 nM, 1 h preincubation with ATP, read-out: GCL IC50 (mM), individual values in parentheses)
25 | N=S(=O)(CC[C@H](N)C(=O)O)CCC(O)(C(=O)O)C(F)(F)F (stereo partly shown) [Compound 333] | 0.02 to 2 mM | ≥ 1 mM |  |  | 
26 | Cc1ccc(C(=O)O)cc1CCS(=N)(=O)CC[C@H](N)C(=O)O (stereo partly shown) [Compound 41] |  |  | 0.02 to 2 mM | ≥ 1 mM | 
27 | N=S(=O)(CC[C@H](N)C(=O)O)CCC1(c2ccc3[nH]nnc3c2)CCC1 (stereo partly shown) [Compound 395] | 0.02 to 2 mM | < 1 mM |  |  | 
28 | COc1cc(OC(F)(F)F)ccc1-c1ccc(C(O)(CCS(=N)(=O)CC[C@H](N)C(=O)O)C(F)(F)F)cc1 (stereo partly shown) [Compound 440] | ≤ 0.02 mM | < 1 mM |  |  | 
29 | N=S(=O)(CCC(c1ccc(-c2cncc(C(F)(F)F)c2)cc1)C(F)(F)F)CC[C@H](N)C(=O)O (stereo partly shown) [Compound 250] | ≤ 0.02 mM | ≥ 1 mM |  |  | 
30 | N=S(=O)(CC[C@H](N)C(=O)O)CCC(O)(c1ccc(-c2ccc(Cl)cc2Cl)cn1)C(F)(F)F (single isomer, unassigned) [Compound 464] | 0.02 to 2 mM | ≥ 1 mM |  |  | 
31 | CN(C)C(=O)[C@@H](N)CCS(=N)(=O)CCC(C)(C)C (stereo partly shown) [Compound 115] |  |  | > 2 mM | ≥ 1 mM | 
32 | CCOC(=O)[C@@H](N)CC[S@@](=N)(=O)CC[C@@](C)(O)C(F)(F)F [Compound 487, ethyl (S)-2-amino-4-((R,3R)-4,4,4-trifluoro-3-hydroxy-3-methylbutylsulfonimidoyl)butanoate] | 0.02 to 2 mM | < 1 mM |  |  | 
33 | CC(C)(CCS(=N)(=O)CC[C@H](N)C(=O)O)c1ccccc1 (stereo partly drawn) [Compound 49, (2S)-2-amino-4-(3-methyl-3-phenylbutylsulfonimidoyl)butanoic acid] |  |  | 0.02 to 2 mM | ≥ 1 mM | 
34 | COC(=O)[C@@H](N)CCS(=N)(=O)CCCC1CC1 (stereo partly drawn) [Compound 71, (2S)-methyl 2-amino-4-(3-cyclopropylpropylsulfonimidoyl)butanoate] |  |  | 0.02 to 2 mM | ≥ 1 mM | 
35 | CCCCNC(=O)[C@@H](N)CCS(=N)(=O)CCCC(F)(F)F (stereo partly shown) [Compound 131] |  |  | > 2 mM | < 1 mM | 
36 | COC(=O)C(CCS(=N)(=O)CC[C@H](N)C(=O)O)C(F)(F)F (stereo partly shown) [Compound 305] | ≤ 0.02 mM | ≥ 1 mM |  |  | 
37 | CCCCOC(=O)[C@@H](N)CCS(=N)(=O)CCC(C)(C)C (stereo partly drawn) [Compound 72, (2S)-butyl 2-amino-4-(3,3-dimethylbutylsulfonimidoyl)butanoate] |  |  | 0.02 to 2 mM | < 1 mM | 
38 | N=S(=O)(CCCC(F)F)CC[C@H](N)C(=O)O (stereo partly shown) [Compound 169] |  |  | ≤ 0.02 mM and 0.02 to 2 mM | < 1 mM | 0.0102 mM and 0.1 mM
39 | CC(O)(CCS(=N)(=O)CC[C@H](N)C(=O)O)C(F)(F)F (stereo partly drawn) [Compound 174, (2S)-2-amino-4-(4,4,4-trifluoro-3-hydroxy-3-methylbutylsulfonimidoyl)butanoic acid] |  |  | 0.02 to 2 mM | < 1 mM | 
40 | N=S(=O)(CCc1cccc(F)c1)CC[C@H](N)C(=O)O (stereo partly shown) [Compound 24] |  |  | ≤ 0.02 mM | ≥ 1 mM | 
41 | Cc1ccc(C(C)(C)CCS(=N)(=O)CC[C@H](N)C(=O)O)cc1 (stereo partly shown) [Compound 56] |  |  | 0.02 to 2 mM | ≥ 1 mM | 
42 | N=S(=O)(/C=C/c1ccccc1)CC[C@H](N)C(=O)O (stereo partly shown) [Compound 156] |  |  | 0.02 to 2 mM | ≥ 1 mM | 
43 | N=S(=O)(CCc1cnoc1)CC[C@H](N)C(=O)O (stereo partly shown) [Compound 9] |  |  | 0.02 to 2 mM | < 1 mM | 
44 | N=S(=O)(CC[C@H](N)C(=O)O)CCC(O)(c1ccc(-c2ccc(Cl)cc2Cl)cc1)C(F)(F)F (stereo partly shown) [Compound 428] | ≤ 0.02 mM | < 1 mM |  |  | 
45 | CC(C)(C)CCS(=N)(=O)CC[C@H](N)C(=O)OC1CCCCC1 (stereo partly shown) [Compound 97] |  |  | > 2 mM | < 1 mM | 
46 | CC(C)(CCS(=N)(=O)CC[C@H](N)C(=O)O)Cc1ccccc1 (stereo partly shown) [Compound 65] |  |  | ≤ 0.02 mM | ≥ 1 mM | 
47 | N=S(=O)(CC[C@H](N)C(=O)O)CC[C@H](O)C(F)(F)F (single isomer, unassigned) [Compound 327] | > 2 mM | ≥ 1 mM |  |  | 
48 | N=S(=O)(CC[C@H](N)C(=O)O)CCC(O)(c1ccc(C(F)(F)F)nc1)C(F)(F)F (stereo partly shown) [Compound 365] | 0.02 to 2 mM | ≥ 1 mM |  |  | 

Source: patent US20260034094A1, “COMPOSITIONS AND METHODS FOR INDUCING FERROPTOSIS” (Kojin Therapeutics, Inc., priority 2022, published 2026)
